From patent publication US20260132132A1, “3A,4,5,6-TETRAHYDRO-1 H-PYRAZOLO[3,4-C]PYRIDIN-7(7AH)-ONE DERIVATIVES AS FACTOR XIIA INHIBITORS” (KALVISTA PHARMACEUTICALS LIMITED, priority 2022, published 2026) come the findings set out here.

Test [1] concerns the target T1, Human Factor XIIa (hFXIIa) (Homo sapiens, UniProt P00748).
T1 construct: purchased Enzyme Research Laboratories
T1 sequence (P00748 373-615 limits assumed): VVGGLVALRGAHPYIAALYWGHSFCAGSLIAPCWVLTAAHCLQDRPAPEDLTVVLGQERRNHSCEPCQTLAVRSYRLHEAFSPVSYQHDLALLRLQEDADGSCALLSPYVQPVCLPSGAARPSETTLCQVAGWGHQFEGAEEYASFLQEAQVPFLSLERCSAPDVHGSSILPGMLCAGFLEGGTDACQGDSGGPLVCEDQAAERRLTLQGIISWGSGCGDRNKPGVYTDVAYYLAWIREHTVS
T1 sequence (P00748 20-372 partner limits assumed): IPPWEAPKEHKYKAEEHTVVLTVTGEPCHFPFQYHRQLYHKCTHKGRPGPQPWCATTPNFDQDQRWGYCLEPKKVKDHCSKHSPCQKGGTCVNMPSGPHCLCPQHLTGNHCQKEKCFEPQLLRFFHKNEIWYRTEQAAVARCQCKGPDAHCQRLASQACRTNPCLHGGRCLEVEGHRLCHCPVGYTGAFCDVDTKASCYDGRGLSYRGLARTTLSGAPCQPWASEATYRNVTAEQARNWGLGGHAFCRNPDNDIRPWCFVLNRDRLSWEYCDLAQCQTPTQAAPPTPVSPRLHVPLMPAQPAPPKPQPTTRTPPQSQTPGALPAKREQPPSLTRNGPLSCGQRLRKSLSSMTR
Kind of test: Determination of Human Factor XIIa (hFXIIa) inhibition, fluorogenic substrate IC50 assay. Type of test: biochemical. Particulars: fluorogenic substrate H-DPro-Phe-Arg-AFC at Km, 25° C., read-out: Human FXIIa IC50. As for the experimental part: Determination of Human Factor XIIa (hFXIIa) inhibition
The Km for the cleavage of the substrate by hFXIIa was determined by standard transformation of the Michaelis-Menten equation, with subsequent inhibition assays performed at substrate Km concentration.

A further test concerns the target FXa (Homo sapiens, UniProt P00742). Kind of test: Related protease inhibition: FXa, fluorogenic substrate. Type of test: biochemical. Particulars: fluorogenic substrate at Km, 25° C.; H1-H3 = % activity at 40 μM. As for the experimental part:
Human serine protease enzyme Plasma Kallikrein, KLK1, FXa, Plasmin, Thrombin and Trypsin were assayed for enzymatic activity using an appropriate fluorogenic substrate at Km concentration, FXIa at fixed substrate concentration of 100 μM and various concentrations of the test compound.

FXa, sequence (P00742 235-488 limits assumed): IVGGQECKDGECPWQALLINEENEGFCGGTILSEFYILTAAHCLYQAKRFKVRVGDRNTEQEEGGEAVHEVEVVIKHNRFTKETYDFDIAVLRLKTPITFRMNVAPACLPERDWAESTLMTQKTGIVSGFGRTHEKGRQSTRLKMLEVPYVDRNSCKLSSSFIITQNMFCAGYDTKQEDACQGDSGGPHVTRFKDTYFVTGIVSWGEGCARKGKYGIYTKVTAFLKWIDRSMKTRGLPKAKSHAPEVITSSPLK
FXa, sequence (P00742 41-179 partner limits assumed): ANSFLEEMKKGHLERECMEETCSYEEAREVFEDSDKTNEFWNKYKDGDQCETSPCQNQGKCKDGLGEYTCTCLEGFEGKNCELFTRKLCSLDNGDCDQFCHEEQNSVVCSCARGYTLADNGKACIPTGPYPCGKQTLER

As for `Cc1ccncc1C(=O)NCc1nn(-c2cccc(Cl)c2)c2c(=O)n(-c3ccc4c(c3)CN(CCO)CC4)c(C)nc12` [Example 3010, N-((1-(3-chlorophenyl)-6-(2-(2-hydroxyethyl)-1,2,3,4-tetrahydroisoquinolin-7-yl)-5-methyl-7-oxo-6,7-dihydro-1H-pyrazolo[4,3-d]pyrimidin-3-yl)methyl)-4-methylnicotinamide], the half-maximal inhibitory concentration (IC50) in test [1] was in the range of 0.3 to 1 µM; at FXa, 3 to 10 µM.

Consider `CCN1CCc2cc(F)c(N3CCc4c(C(=O)NCC5CC5)nn(-c5cccc(Cl)c5)c4C3=O)cc2C1` [Example 1079, 1-(3-chlorophenyl)-N-(cyclopropylmethyl)-6-(2-ethyl-6-fluoro-1,2,3,4-tetrahydroisoquinolin-7-yl)-7-oxo-4,5,6,7-tetrahydro-1H-pyrazolo[3,4-c]pyridine-3-carboxamide], for which the IC50 was in the range of 0.01 to 0.1 µM in test [1] and 10 to 40 µM against FXa.

Consider `CCNC(=O)c1nn(-c2cccc(Cl)c2)c2c1CCN(c1cccc(N3CCOC3=O)c1)C2=O` [Example 1362, 1-(3-chlorophenyl)-N-ethyl-7-oxo-6-(3-(2-oxooxazolidin-3-yl)phenyl)-4,5,6,7-tetrahydro-1H-pyrazolo[3,4-c]pyridine-3-carboxamide], for which the IC50 in test [1] was 3 to 10 µM; against FXa, over 40 µM.

In the case of `CN1CCc2ccc(N3CCc4c(C(=O)N[C@@H](CO)C5CC5)nn(-c5cccc(Cl)c5)c4C3=O)cc2C1=O` [Example 1404, (R)-1-(3-chlorophenyl)-N-(1-cyclopropyl-2-hydroxyethyl)-6-(2-methyl-1-oxo-1,2,3,4-tetrahydroisoquinolin-7-yl)-7-oxo-4,5,6,7-tetrahydro-1H-pyrazolo[3,4-c]pyridine-3-carboxamide], the figures for the IC50 (in test [1]; at FXa) were 0.1 to 0.3 µM and over 40 µM, respectively.

In the case of `O=C(NCC1CC1)c1nn(-c2cccc(Cl)c2)c2c1CCN(c1ccc3c(c1)CN(C(=O)CO)CC3)C2=O` [Example 1114, 1-(3-chlorophenyl)-N-(cyclopropylmethyl)-6-(2-(2-hydroxyacetyl)-1,2,3,4-tetrahydroisoquinolin-7-yl)-7-oxo-4,5,6,7-tetrahydro-1H-pyrazolo[3,4-c]pyridine-3-carboxamide], the IC50 was 3 to 10 µM in test [1] and over 40 µM at FXa.

As to `CC1(C)OCCC1NC(=O)c1nn(-c2cccc(Cl)c2)c2c1CCN(c1ccc3c(c1)CN(CCO)CC3)C2=O` (centres unmarked) [Example 1112, 1-(3-chlorophenyl)-N-(2,2-dimethyltetrahydrofuran-3-yl)-6-(2-(2-hydroxyethyl)-1,2,3,4-tetrahydroisoquinolin-7-yl)-7-oxo-4,5,6,7-tetrahydro-1H-pyrazolo[3,4-c]pyridine-3-carboxamide], the 50% inhibitory concentration (IC50) in test [1] is 0.1 to 0.3 µM; against FXa it was over 40 µM.

Take `O=C(NCc1ccccc1)c1nn(-c2cccc(Cl)c2)c2c1CCN(c1ccc3c(c1)CN(CC1CC1)CC3)C2=O` [Example 1019, N-benzyl-1-(3-chlorophenyl)-6-(2-(cyclopropylmethyl)-1,2,3,4-tetrahydroisoquinolin-7-yl)-7-oxo-4,5,6,7-tetrahydro-1H-pyrazolo[3,4-c]pyridine-3-carboxamide]: the IC50 in test [1] is 0.1 to 0.3 µM; on FXa, over 40 µM.

With `CN1CCc2ccc(N3CCc4c(C(=O)NCC5CCOC5)nn(-c5cccc(Cl)c5)c4C3=O)cc2C1` (centres unmarked) [Example 1026, 1-(3-chlorophenyl)-6-(2-methyl-1,2,3,4-tetrahydroisoquinolin-7-yl)-7-oxo-N-((tetrahydrofuran-3-yl)methyl)-4,5,6,7-tetrahydro-1H-pyrazolo[3,4-c]pyridine-3-carboxamide], the 50% inhibitory concentration (IC50) in test [1] fell in the range of 0.3 to 1 µM; against FXa, 10 to 40 µM.

As for `Cc1ccncc1CNC(=O)c1nn(-c2cccc(Cl)c2)c2c1CCN(c1ccc3ccn(C)c(=O)c3c1)C2=O` [Example 1212, 1-(3-chlorophenyl)-6-(2-methyl-1-oxo-1,2-dihydroisoquinolin-7-yl)-N-((4-methylpyridin-3-yl)methyl)-7-oxo-4,5,6,7-tetrahydro-1H-pyrazolo[3,4-c]pyridine-3-carboxamide], the half-maximal inhibitory concentration (IC50) was 1 to 3 µM in test [1] and over 40 µM against FXa.

Regarding `CC(=O)N1CCCc2ccc(N3CCc4c(C(=O)NCc5cnccc5C)nn(-c5cccc(Cl)c5)c4C3=O)cc21` [Example 1314, 6-(1-acetyl-1,2,3,4-tetrahydroquinolin-7-yl)-1-(3-chlorophenyl)-N-((4-methylpyridin-3-yl)methyl)-7-oxo-4,5,6,7-tetrahydro-1H-pyrazolo[3,4-c]pyridine-3-carboxamide], the IC50 in test [1] lay in the range of 0.1 to 0.3 µM; against FXa, 10 to 40 µM.

In the case of `Cc1cc(CNC(=O)CN2CCOc3ccc(N4CCc5c(C(=O)NCc6cc(C)n(C)n6)nn(-c6cccc(Cl)c6)c5C4=O)cc3C2=O)nn1C` [Example 1383, 1-(3-chlorophenyl)-N-((1,5-dimethyl-1H-pyrazol-3-yl)methyl)-6-(4-(2-(((1,5-dimethyl-1H-pyrazol-3-yl)methyl)amino)-2-oxoethyl)-5-oxo-2,3,4,5-tetrahydrobenzo[f][1,4]oxazepin-7-yl)-7-oxo-4,5,6,7-tetrahydro-1H-pyrazolo[3,4-c]pyridine-3-carboxamide], the IC50 is 0.01 to 0.1 µM in test [1] and 3 to 10 µM against FXa.

Consider `CCN1CCOc2ccc(N3CCc4c(C(=O)NCc5cc(C)n(C)n5)nn(-c5cccc(Cl)c5)c4C3=O)cc2C1=O` [Example 1317, 1-(3-chlorophenyl)-N-((1,5-dimethyl-1H-pyrazol-3-yl)methyl)-6-(4-ethyl-5-oxo-2,3,4,5-tetrahydrobenzo[f][1,4]oxazepin-7-yl)-7-oxo-4,5,6,7-tetrahydro-1H-pyrazolo[3,4-c]pyridine-3-carboxamide], for which the concentration for half-maximal inhibition (IC50) in test [1] was 0.01 to 0.1 µM; against FXa, 3 to 10 µM.

For the compound `COc1ccc(CNC(=O)c2nn(-c3cccc(Cl)c3)c3c2CCN(c2ccc4c(c2)CN(C)CC4)C3=O)cn1` [Example 1135, 1-(3-chlorophenyl)-N-((6-methoxypyridin-3-yl)methyl)-6-(2-methyl-1,2,3,4-tetrahydroisoquinolin-7-yl)-7-oxo-4,5,6,7-tetrahydro-1H-pyrazolo[3,4-c]pyridine-3-carboxamide], the IC50 in test [1] lay in the range of 0.01 to 0.1 µM; at FXa, 1 to 3 µM.

Turning to `Cc1cc(CNC(=O)c2nn(-c3cccc(Cl)c3)c3c2CN(c2ccc4c(c2)CN(CCO)CC4)C3=O)nn1C` [Example 4001, 1-(3-Chlorophenyl)-N-[(1,5-dimethylpyrazol-3-yl)methyl]-5-[2-(2-hydroxyethyl)-3,4-dihydro-1H-isoquinolin-7-yl]-6-oxo-4H-pyrrolo[3,4-c]pyrazole-3-carboxamide], the 50% inhibitory concentration (IC50) in test [1] was 3 to 10 µM; against FXa, over 40 µM.

Turning to `CCNC(=O)c1nn(-c2cccc(Cl)c2)c2c1CCN(c1cccc(N3CCCC3=O)c1)C2=O` [Example 1365, 1-(3-chlorophenyl)-N-ethyl-7-oxo-6-(3-(2-oxopyrrolidin-1-yl)phenyl)-4,5,6,7-tetrahydro-1H-pyrazolo[3,4-c]pyridine-3-carboxamide], the IC50 was 1 to 3 µM in test [1] and over 40 µM on FXa.

For `CN1CCc2ccc(N3CCc4c(C(=O)N[C@H]5CCOC5)nn(-c5cccc(Cl)c5)c4C3=O)cc2C1=O` [Example 1336, (S)-1-(3-chlorophenyl)-6-(2-methyl-1-oxo-1,2,3,4-tetrahydroisoquinolin-7-yl)-7-oxo-N-(tetrahydrofuran-3-yl)-4,5,6,7-tetrahydro-1H-pyrazolo[3,4-c]pyridine-3-carboxamide], the results for the IC50 (in test [1]; against FXa) were 0.3 to 1 µM and over 40 µM, respectively.

Turning to `O=C(NCC1CC1)c1nn(-c2cccc(Cl)c2)c2c1CCN(c1cc(F)c3c(c1)CN(CCO)CC3)C2=O` [Example 1122, 1-(3-Chlorophenyl)-N-(cyclopropylmethyl)-6-(5-fluoro-2-(2-hydroxyethyl)-1,2,3,4-tetrahydroisoquinolin-7-yl)-7-oxo-4,5,6,7-tetrahydro-1H-pyrazolo[3,4-c]pyridine-3-carboxamide], the IC50 in test [1] was 0.1 to 0.3 µM; against FXa, over 40 µM.

For `CN1CCc2ccc(N3CCc4c(C(=O)NC5(C)CCOCC5)nn(-c5cccc(Cl)c5)c4C3=O)cc2C1=O` [Example 1266, 1-(3-chlorophenyl)-6-(2-methyl-1-oxo-1,2,3,4-tetrahydroisoquinolin-7-yl)-N-(4-methyltetrahydro-2H-pyran-4-yl)-7-oxo-4,5,6,7-tetrahydro-1H-pyrazolo[3,4-c]pyridine-3-carboxamide], the IC50 in test [1] was 0.3 to 1 µM; at FXa, over 40 µM.

As for `CC(=O)N1CCc2ccc(N3CCc4c(C(=O)NCc5cc(C)n(C)n5)nn(-c5cccc(Cl)c5)c4C3=O)cc21` [Example 1304, 6-(1-acetylindolin-6-yl)-1-(3-chlorophenyl)-N-((1,5-dimethyl-1H-pyrazol-3-yl)methyl)-7-oxo-4,5,6,7-tetrahydro-1H-pyrazolo[3,4-c]pyridine-3-carboxamide], the IC50 in test [1] was 0.3 to 1 µM; at FXa it was over 40 µM.

Broadly, the IC50 is the concentration that gives 50% inhibition.
